According to paper PMC6791878, “Evaluation of integrin αvβ6 cystine knot PET tracers to detect cancer and idiopathic pulmonary fibrosis” (Nature Communications, 2019):
Several values for one entry are separate records, joined by “and”; a condition that tells them apart may be missing. Equal values may be shown once.

Columns and labels:
human integrin αvβ6 [1] = molecular target: T1, human integrin αvβ6 (Homo sapiens, UniProt P06756+P18564, DEL708-788); test: Equilibrium binding of yeast-displayed knottins to soluble integrin αvβ6 (two-colour flow cytometry, KD); conditions: KD, equilibrium binding, knottin expressed on yeast surface vs soluble human integrin αvβ6; ± S.D., three replicates on separate days
T1 construct: purchased R&D Systems
T1 sequence (P06756 31-992 limits assumed, stated change not applied): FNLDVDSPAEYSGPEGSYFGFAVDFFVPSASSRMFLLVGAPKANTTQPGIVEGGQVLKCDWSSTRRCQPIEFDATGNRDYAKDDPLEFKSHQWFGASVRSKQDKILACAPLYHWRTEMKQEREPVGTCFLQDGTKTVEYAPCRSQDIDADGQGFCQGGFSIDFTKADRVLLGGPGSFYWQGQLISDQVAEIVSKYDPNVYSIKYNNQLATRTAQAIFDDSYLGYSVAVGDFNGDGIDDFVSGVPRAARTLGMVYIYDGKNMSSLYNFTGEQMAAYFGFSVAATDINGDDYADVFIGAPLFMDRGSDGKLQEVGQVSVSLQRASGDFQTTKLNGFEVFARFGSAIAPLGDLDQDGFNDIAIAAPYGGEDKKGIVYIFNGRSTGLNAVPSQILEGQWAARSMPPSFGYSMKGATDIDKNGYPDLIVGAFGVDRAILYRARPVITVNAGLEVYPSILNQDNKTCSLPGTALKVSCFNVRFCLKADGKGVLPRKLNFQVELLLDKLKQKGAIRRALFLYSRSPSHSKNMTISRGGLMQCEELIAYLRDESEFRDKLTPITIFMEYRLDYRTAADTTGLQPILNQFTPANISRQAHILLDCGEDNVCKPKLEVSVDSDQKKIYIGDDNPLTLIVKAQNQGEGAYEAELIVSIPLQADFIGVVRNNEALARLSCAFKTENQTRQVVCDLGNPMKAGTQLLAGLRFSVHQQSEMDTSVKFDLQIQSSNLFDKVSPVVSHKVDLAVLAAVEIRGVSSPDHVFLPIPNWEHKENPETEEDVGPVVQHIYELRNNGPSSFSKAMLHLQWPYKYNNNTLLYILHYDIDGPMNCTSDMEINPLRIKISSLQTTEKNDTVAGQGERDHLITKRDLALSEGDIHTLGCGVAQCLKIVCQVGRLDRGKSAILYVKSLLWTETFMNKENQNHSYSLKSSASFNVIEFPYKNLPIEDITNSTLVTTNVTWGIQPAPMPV
T1 sequence (P18564 22-707 limits assumed, stated change not applied): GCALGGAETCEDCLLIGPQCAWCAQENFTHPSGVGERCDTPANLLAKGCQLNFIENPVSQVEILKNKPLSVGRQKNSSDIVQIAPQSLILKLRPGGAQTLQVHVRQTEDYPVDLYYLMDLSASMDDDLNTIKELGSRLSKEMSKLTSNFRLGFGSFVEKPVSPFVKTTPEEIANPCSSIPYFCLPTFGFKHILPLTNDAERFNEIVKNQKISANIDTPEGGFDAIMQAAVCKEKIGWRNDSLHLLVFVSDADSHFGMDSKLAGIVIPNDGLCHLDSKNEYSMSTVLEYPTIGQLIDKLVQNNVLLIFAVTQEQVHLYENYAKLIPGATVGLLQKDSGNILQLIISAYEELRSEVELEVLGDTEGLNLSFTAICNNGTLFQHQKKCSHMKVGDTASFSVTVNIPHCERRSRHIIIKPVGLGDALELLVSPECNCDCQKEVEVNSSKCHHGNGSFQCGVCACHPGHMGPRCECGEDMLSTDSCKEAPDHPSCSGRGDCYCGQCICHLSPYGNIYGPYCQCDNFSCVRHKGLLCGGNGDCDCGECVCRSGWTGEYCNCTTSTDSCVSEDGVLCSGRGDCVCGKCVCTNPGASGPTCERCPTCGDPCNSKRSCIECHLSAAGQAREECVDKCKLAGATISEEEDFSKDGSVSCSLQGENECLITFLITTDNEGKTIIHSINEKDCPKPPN

human integrin αvβ6 [2] = molecular target: T1, human integrin αvβ6; test: Competition binding (IC50) against yeast surface-displayed R01-MG; conditions: compete with R01-MG displayed on yeast

Compound: CC[C@H](C)[C@@H]1NC(=O)[C@@H](NC(=O)CN)CSSC[C@@H]2NC(=O)[C@H](C)NC(=O)CNC(=O)[C@@H]3CCCN3C(=O)[C@@H]3CSSC[C@@H](C(=O)NCC(N)=O)NC(=O)[C@H](Cc4ccc(O)cc4)NC(=O)CNC(=O)[C@H](CC(N)=O)NC(=O)CNC(=O)[C@H](CCCNC(=N)N)NC(=O)[C@H](CSSC[C@H](NC(=O)[C@H](CCCNC(=N)N)NC(=O)[C@H](Cc4ccccc4)NC(=O)[C@H](CC(C)C)NC(=O)[C@H](CC(C)C)NC(=O)[C@H]([C@@H](C)O)NC(=O)CNC(=O)[C@H](CC(C)C)NC(=O)[C@H](CC(=O)O)NC(=O)[C@H]([C@@H](C)O)NC(=O)[C@H](CCCNC(=N)N)NC(=O)CNC(=O)[C@H](CC(N)=O)NC(=O)[C@H](CC(C)C)NC1=O)C(=O)N[C@@H](CCCNC(=N)N)C(=O)N[C@@H](CCCNC(=N)N)C(=O)N[C@@H](CC(=O)O)C(=O)N[C@@H](CO)C(=O)N[C@@H](CC(=O)O)C(=O)N3)NC(=O)[C@H]([C@@H](C)CC)NC2=O [R01-MG]
- Kd (human integrin αvβ6 [1]): ~1 nM and 1.24 nM
- binding affinity for integrin avb6 in competition binding (IC50), in words (human integrin αvβ6 [2]): subnanomolar
